Data from patent US6783952B1, “Secreted soluble α2δ-2, α2δ-3 or α2δ-4 calcium channel subunit polypeptides and screening assays using same” (Warner-Lambert Company, priority 1999, dated 2004).

What follows are compounds tested against [^3H]gabapentin site in porcine cortical membranes (Sus scrofa, UniProt O77773) (assay: [3H]gabapentin binding site competition in porcine cortical membranes). Conditions: read-out: IC50 arithmetic mean (N = 3) ± S.E.M., binding affinity for the [3H]gabapentin site, mean of n = 3 ± S.E.M.
[^3H]gabapentin site in porcine cortical membranes, sequence (O77773 25-1091): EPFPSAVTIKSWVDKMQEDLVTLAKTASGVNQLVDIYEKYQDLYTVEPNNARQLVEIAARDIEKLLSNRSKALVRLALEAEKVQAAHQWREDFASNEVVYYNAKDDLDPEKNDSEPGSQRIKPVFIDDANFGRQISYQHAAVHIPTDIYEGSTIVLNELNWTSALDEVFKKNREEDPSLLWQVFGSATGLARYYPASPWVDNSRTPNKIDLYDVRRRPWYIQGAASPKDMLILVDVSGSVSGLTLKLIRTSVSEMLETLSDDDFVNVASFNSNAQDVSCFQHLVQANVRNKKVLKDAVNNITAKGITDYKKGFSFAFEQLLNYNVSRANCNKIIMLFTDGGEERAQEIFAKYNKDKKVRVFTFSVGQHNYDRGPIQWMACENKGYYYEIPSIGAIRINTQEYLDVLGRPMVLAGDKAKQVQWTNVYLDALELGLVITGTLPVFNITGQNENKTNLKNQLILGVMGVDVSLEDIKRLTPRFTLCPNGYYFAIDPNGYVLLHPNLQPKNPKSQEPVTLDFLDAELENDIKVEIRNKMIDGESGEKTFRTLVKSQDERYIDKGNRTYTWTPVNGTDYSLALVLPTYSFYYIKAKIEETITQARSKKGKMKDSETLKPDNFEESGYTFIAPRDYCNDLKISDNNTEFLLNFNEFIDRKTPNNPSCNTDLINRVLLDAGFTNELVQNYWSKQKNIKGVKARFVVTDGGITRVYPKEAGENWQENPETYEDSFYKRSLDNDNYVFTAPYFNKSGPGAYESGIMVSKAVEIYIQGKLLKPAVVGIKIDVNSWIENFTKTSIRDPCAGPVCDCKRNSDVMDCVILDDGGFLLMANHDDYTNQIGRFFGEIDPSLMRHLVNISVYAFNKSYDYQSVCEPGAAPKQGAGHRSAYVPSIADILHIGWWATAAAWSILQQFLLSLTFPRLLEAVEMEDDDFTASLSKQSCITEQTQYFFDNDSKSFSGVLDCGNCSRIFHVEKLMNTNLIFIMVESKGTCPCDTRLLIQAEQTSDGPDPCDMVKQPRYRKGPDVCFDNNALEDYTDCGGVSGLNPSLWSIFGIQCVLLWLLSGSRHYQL

Row | Structure (SMILES) | IC50
1 | CC[C@H](C)[C@H](N)C(=O)O [L-Isoleucine] | 68.8 ± 1.9 nM
2 | CCCC[C@H](N)C(=O)O [L-Norleucine] | 23.6 ± 6.7 nM
3 | CSCC[C@H](N)C(=O)O [L-Methionine] | 49.6 ± 10 nM
4 | CC(C)C[C@H](N)C(=O)O [L-Leucine] | 61.3 ± 20.9 nM
5 | CC[C@@H](C)[C@H](N)C(=O)O [L-Allo-Isoleucine] | 32.8 ± 6 nM
6 | CC(C)[C@H](N)C(=O)O [L-Valine] | 330 ± 18 nM
7 | N[C@@H](Cc1ccccc1)C(=O)O [L-Phenylalanine] | 351 ± 89 nM
